Data reported in ChEMBL document CHEMBL1201862, “PubChem BioAssay data set” (2004).
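Following 48 hours of exposure in 96-well plates, responses at five concentrations were used to interpolate endpoints linearly. GI50: concentration for 50% inhibition of growth.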 Active and inactive are the calls of the source. Cut-off read from the data, not from the text of the source: active = GI50 up to about 1.1 µM and inactive = higher.

Experiments:
Assay in all cases: NCI tumour cell line growth inhibition, 48 h
[1] = test system: RXF 393
[2] = test system: SK-MEL-2
[3] = test system: CAKI-1
[4] = test system: BT-549
[5] = test system: CCRF-CEM
[6] = test system: RPMI-8226
[7] = test system: UACC-257
[8] = test system: SF-295
[9] = test system: HOP-62
[10] = test system: MOLT-4
[11] = test system: SK-MEL-5
[12] = test system: K562
[13] = test system: NCI/ADR-RES
[14] = test system: SNB-75
[15] = test system: SK-MEL-28
[16] = test system: EKVX
[17] = test system: HL-60
[18] = test system: Hs-578T
[19] = test system: PC-3

Measured: GI50

CC(=O)OCC1OC(Oc2cc(C)c(O)cc2C/C=C(\C)CC/C=C(\C)C[C@@H](C=C(C)C)OC(C)=O)C(O)C(OC(C)=O)C1OC(C)=O (stereo partly drawn)
inactive: [1] 12 µM | [2] 19.9 µM | [3] > 50 µM | [4] 16.8 µM | [5] 9.46 µM | [6] 9.84 µM | [7] 10 µM | [8] 22.2 µM | [9] 28.4 µM | [10] 8.26 µM | [11] 9.14 µM | [12] 11.6 µM | [13] 16.8 µM | [14] 13.2 µM | [15] 44.5 µM | [16] 38.6 µM | [17] 9.79 µM | [18] 13.6 µM | [19] 18.2 µM

C=C1C(=O)OC2C1CC(O)/C(C)=C\CCC1(C)OC21 (stereo not drawn)
inactive: [1] 16.8 µM | [2] 17.5 µM | [4] 23 µM | [5] 25.4 µM | [6] 21.4 µM | [7] 34 µM | [8] 30.3 µM | [9] 20 µM | [10] 7.35 µM | [11] 21 µM | [13] 22.7 µM | [14] 39.8 µM | [15] 33.3 µM | [16] 36.7 µM | [17] 23.7 µM | [18] 23.5 µM | [19] 23.2 µM

OC1CCCN(C2(c3cccs3)CCCCC2)C1 (stereo not drawn)
inactive: [1] > 100 µM | [2] > 100 µM | [3] > 100 µM | [4] > 100 µM | [6] > 100 µM | [7] > 100 µM | [8] > 100 µM | [9] > 100 µM | [10] > 100 µM | [11] > 100 µM | [12] > 100 µM | [13] > 100 µM | [14] > 100 µM | [15] > 100 µM | [16] > 100 µM | [17] 74.6 µM | [18] > 100 µM | [19] > 100 µM

C/C(=N\NC(=O)c1ccc(Cl)cc1)c1nc2cccnc2[nH]1
inactive: [1] 18.1 µM | [2] 28.4 µM | [3] 28.8 µM | [4] 22.3 µM | [5] 10.4 µM | [6] 27 µM | [7] 20 µM | [8] 45.8 µM | [9] 32.7 µM | [10] 14.3 µM | [11] 15.8 µM | [12] 42.6 µM | [13] 20.5 µM | [14] 3.26 µM | [15] 27 µM | [16] 43 µM | [17] 32.7 µM | [18] 27.3 µM | [19] > 100 µM
